Assay results as given in ChEMBL document CHEMBL2021874, “Discovery of a series of 2-(1H-pyrazol-1-yl)pyridines as ALK5 inhibitors with potential utility in the prevention of dermal scarring” (Bioorg Med Chem Lett, 2012).
The source made the active and inactive calls. The calls are words filed in the database; no cut-off is given here.

Experiments:
[1] = target: T1, TGF-beta receptor type-1 (Homo sapiens, UniProt P36897); experiment: Inhibition of ALK5
T1 sequence (P36897 whole entry): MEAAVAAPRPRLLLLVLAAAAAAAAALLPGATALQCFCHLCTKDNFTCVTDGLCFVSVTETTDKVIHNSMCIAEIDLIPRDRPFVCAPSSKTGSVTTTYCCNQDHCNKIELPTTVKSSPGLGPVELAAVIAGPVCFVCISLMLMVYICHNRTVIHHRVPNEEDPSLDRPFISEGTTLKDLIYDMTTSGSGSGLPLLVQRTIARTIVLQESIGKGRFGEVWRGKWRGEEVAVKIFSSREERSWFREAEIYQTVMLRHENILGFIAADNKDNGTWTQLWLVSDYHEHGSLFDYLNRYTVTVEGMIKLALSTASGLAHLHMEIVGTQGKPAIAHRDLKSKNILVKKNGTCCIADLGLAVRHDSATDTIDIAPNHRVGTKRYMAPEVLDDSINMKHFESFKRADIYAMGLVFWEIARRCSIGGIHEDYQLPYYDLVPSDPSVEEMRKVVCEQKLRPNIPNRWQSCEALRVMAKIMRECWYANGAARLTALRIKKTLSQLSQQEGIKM

[2] = Photostability of the compound assessed as compound remaining after exposure to sunlight; type: physicochemical
[3] = target: T2, TGF-beta receptor type-1 (Mus musculus, UniProt Q64729); experiment: Inhibition of ALK5 in mouse NIH/3T3 cells by smad binding element reporter based assay; type: cell-based
T2 sequence (Q64729 whole entry): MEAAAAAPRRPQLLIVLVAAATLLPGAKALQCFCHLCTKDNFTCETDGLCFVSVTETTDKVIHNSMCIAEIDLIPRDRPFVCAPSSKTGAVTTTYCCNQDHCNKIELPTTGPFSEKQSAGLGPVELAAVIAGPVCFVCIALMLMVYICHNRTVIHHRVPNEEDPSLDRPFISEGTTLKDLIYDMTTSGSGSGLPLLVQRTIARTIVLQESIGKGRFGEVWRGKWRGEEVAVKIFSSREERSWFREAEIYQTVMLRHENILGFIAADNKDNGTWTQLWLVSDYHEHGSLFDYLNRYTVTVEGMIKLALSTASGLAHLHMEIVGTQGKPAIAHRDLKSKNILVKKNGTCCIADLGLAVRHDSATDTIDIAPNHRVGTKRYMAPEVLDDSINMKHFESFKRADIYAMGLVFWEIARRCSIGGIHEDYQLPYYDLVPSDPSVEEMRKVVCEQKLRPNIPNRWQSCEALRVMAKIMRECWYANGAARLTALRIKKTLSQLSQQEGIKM

[4] = tested on: Rattus norvegicus; experiment: Inhibition of dermal injury-induced TGFbeta-1 gene expression in rat wound repair model treated topically after 7 days; type: functional, organism-based
[5] = tested on: Rattus norvegicus; experiment: Inhibition of dermal injury-induced CTGF gene expression in rat wound repair model treated topically after 7 days; type: functional, organism-based
[6] = tested on: Rattus norvegicus; experiment: Inhibition of wound healing in rat wound repair model treated topically by measuring wound closure after 7 days; type: functional, organism-based
[7] = tested on: Fibroblast; experiment: Inhibition of in TGFbeta-induced CTGF gene expression in human fibroblasts; type: functional, cell-based
[8] = tested on: Rattus norvegicus; experiment: Inhibition of dermal injury-induced CLO1A gene expression in rat wound repair model treated topically after 7 days; type: functional, organism-based
[9] = tested on: Fibroblast; experiment: Inhibition of in TGFbeta-induced alpha-SMA gene expression in human fibroblasts; type: functional, cell-based
[10] = tested on: Rattus norvegicus; experiment: Inhibition of dermal injury-induced alpha-SMA gene expression in rat wound repair model treated topically after 7 days; type: functional, organism-based
[11] = tested on: Fibroblast; experiment: Inhibition of in TGFbeta-induced FSP1 gene expression in human fibroblasts; type: functional, cell-based
[12] = tested on: Rattus norvegicus; experiment: Inhibition of dermal injury-induced FSP1 gene expression in rat wound repair model treated topically after 7 days; type: functional, organism-based
[13] = tested on: Fibroblast; experiment: Inhibition of in TGFbeta-induced SMAD2/3 phosphorylation in human fibroblasts; type: functional, cell-based
[14] = target: Activin receptor type-1-like (Homo sapiens, UniProt P37023); experiment: Inhibition of ALK1
Sequence of Activin receptor type-1-like (P37023 whole entry): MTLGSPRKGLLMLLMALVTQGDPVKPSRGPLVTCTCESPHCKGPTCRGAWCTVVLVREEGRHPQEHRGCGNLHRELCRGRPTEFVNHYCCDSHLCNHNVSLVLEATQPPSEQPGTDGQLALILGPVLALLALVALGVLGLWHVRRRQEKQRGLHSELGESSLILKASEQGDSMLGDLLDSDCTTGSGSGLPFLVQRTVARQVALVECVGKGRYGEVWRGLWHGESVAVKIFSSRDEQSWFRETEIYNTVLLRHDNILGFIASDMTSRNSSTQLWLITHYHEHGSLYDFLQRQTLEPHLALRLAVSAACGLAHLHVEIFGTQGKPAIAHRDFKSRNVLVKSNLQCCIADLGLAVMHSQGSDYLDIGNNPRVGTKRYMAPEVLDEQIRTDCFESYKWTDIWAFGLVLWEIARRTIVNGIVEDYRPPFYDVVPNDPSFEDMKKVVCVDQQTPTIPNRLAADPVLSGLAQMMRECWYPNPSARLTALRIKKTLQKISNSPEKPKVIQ

[15] = tested on: Fibroblast; experiment: Inhibition of in TGFbeta-induced COL1A gene expression in human fibroblasts; type: functional, cell-based
[16] = tested on: Rattus norvegicus; experiment: Inhibition of dermal injury-induced PAI1 gene expression in rat wound repair model treated topically after 7 days; type: functional, organism-based
[17] = tested on: Fibroblast; experiment: Inhibition of in TGFbeta-induced FN1 gene expression in human fibroblasts; type: functional, cell-based
[18] = tested on: Fibroblast; experiment: Inhibition of in TGFbeta-induced PAI1 gene expression in human fibroblasts; type: functional, cell-based
[19] = target: T3, Activin receptor type-1B (Homo sapiens, UniProt P36896); experiment: Inhibition of ALK4
T3 sequence (P36896 whole entry): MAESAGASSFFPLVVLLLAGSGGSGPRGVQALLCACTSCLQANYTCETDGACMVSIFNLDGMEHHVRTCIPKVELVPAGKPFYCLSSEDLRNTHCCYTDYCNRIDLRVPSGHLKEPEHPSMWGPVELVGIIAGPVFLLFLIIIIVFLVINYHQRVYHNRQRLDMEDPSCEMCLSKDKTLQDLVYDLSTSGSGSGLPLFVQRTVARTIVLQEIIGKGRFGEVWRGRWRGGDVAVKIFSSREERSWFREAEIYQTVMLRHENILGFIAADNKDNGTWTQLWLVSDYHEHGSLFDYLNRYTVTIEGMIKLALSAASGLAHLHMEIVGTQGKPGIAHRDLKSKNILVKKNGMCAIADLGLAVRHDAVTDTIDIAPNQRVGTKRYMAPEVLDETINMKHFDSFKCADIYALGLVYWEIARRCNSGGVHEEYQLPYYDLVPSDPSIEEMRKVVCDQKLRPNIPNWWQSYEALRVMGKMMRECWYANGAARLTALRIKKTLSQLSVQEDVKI

[20] = tested on: Rattus norvegicus; experiment: Inhibition of dermal injury-induced new collagen synthesis in rat wound repair model at 1% treated topically after 7 days; type: functional
[21] = tested on: Rattus norvegicus; experiment: Inhibition of dermal injury-induced FN1 gene expression in rat wound repair model treated topically after 7 days; type: functional, organism-based
[22] = tested on: Fibroblast; experiment: Inhibition of in TGFbeta-induced TGFbeta1 gene expression in human fibroblasts; type: functional, cell-based
[23] = Photostability of the compound assessed as compound degradation after exposure to sunlight; type: physicochemical; details: read-out: Drug degradation

| Compound | IC50 [1] [nM] | Stability [2] [%] | IC50 [3] [nM] | further results |
| --- | --- | --- | --- | --- |
| Cc1cccc(-n2nc3c(c2-c2ccc4nc[nH]c(=O)c4c2)CCC3)n1 | 5 | 100 | 46 |  |
| Cc1cccc(-n2nccc2-c2ccc3ncn(C)c(=O)c3c2)n1 | 13 | 99.4 | 211 | inhibition [4]: Dose-dependent effect; inhibition [5]: Dose-dependent effect; inhibition [6]: inactive; inhibition [7]: Dose-dependent effect; inhibition [8]: Dose-dependent effect; inhibition [9]: Dose-dependent effect; inhibition [10]: Dose-dependent effect; inhibition [11]: Dose-dependent effect; inhibition [12]: Dose-dependent effect; inhibition [13]: Dose-dependent effect; IC50 [14]: > 5 µM; inhibition [15]: Dose-dependent effect; inhibition [16]: Dose-dependent effect; inhibition [17]: Dose-dependent effect; inhibition [18]: Dose-dependent effect; IC50 [19]: 59 nM; inhibition (INH) [20]: 26%; inhibition [21]: Dose-dependent effect; inhibition [22]: Dose-dependent effect |
| Cc1cccc(-n2nc(C)cc2-c2ccc3ncn(C)c(=O)c3c2)n1 | 3 |  | 695 |  |
| Cc1cccc(-n2nccc2-c2ccc3nc[nH]c(=O)c3c2)n1 | 6 |  | 73 |  |
| CCc1cc(-c2ccc3ncn(C)c(=O)c3c2)n(-c2cccc(C)n2)n1 | 1 |  | 274 |  |
| CCn1cnc2ccc(-c3ccnn3-c3cccc(C)n3)cc2c1=O | 69 | 100 | 708 |  |
| Cc1cccc(-n2ncc(C)c2-c2ccc3nc[nH]c(=O)c3c2)n1 | 1 |  | 61 |  |
| Cc1cccc(-n2ncc(C)c2-c2ccc3ncn(C)c(=O)c3c2)n1 | 4 | 99 | 135 |  |
| Cc1cccc(-c2n[nH]cc2-c2ccc3ncn(C)c(=O)c3c2)n1 |  | 32 |  | degraded [23]: 68% |
| C=Cn1cnc2ccc(-c3ccnn3-c3cccc(C)n3)cc2c1=O | 4 | 100 | 44 |  |
| CCc1cnn(-c2cccc(C)n2)c1-c1ccc2nc[nH]c(=O)c2c1 | 2 |  | 47 |  |
